In patent US20230391772A1, “METHODS AND COMPOSITIONS FOR TARGETED PROTEIN DEGRADATION” (Ranok Therapeutics (Hangzhou) Co. Ltd., priority 2020, published 2023):

What was measured:
KRAS(G12C) [1] = target: T1, KRAS(G12C) (Homo sapiens, UniProt P01116, G12C); assay: KRAS(G12C) Western blot protein degradation assay in LU65A cells; format: cell-based; design: LU65A human lung cancer cell line, which expresses KRAS(G12C); host or cells: LU65A; conditions: 6 hr
Summary of the method: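 Cells treated with compound at various concentrations at 37 °C for 48 hr (MIA PaCa-2) or 6 hr (LU65A), then lysed in RIPA. Protein-normalized lysates immunoblotted for KRAS with β-actin, fluorescence quantified; DC50 is the concentration giving 50% of maximal KRAS degradation.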

[2] = tested on: MIA PaCa-2 human pancreatic carcinoma; assay: MIA PaCa-2 CCK-8 proliferation assay; format: cell-based; conditions: Homo sapiens, MIA PaCa-2, 72 h, MIA PaCa-2 cells
Summary of the method: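 KRAS(G12C) lines were used: MIA PaCa-2 with 2 copies, and NCI-H358 and NCI-H23 with 1 copy each. Cells were treated with 3-fold compound dilutions from 20 μM to 1.02 nM, and proliferation was read by CCK-8 absorbance. % inhibition was calculated against DMSO-treated cells after subtracting the cell-free medium blank.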

KRAS(G12C) [3] = target: T1, KRAS(G12C); assay: KRAS(G12C)/SOS1 homogeneous time-resolved fluorescence (HTRF) assay; design: purchased Cisbio 63ADK000CB16PEG; conditions: absence of GTP, 4° C. for 3 hr, read-out: KRAS (G12C) binding
Summary of the method: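 HTRF kit measuring compound-induced block of KRAS(G12C)-SOS1 interaction without GTP. Compounds tested as 3-fold serial dilutions down to 1.02 nM, incubated with reaction components 3 h at 4 °C in sealed plates before fluorescence read.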

T1 sequence (P01116 1-188 isoform P01116-2 G12C): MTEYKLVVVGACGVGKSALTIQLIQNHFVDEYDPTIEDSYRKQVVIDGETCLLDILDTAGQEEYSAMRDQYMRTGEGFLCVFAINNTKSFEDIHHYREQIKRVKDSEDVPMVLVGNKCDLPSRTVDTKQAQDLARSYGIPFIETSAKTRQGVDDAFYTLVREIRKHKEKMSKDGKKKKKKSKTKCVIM

DC50 (KRAS(G12C) [1]) | EC50 [2] | IC50 (KRAS(G12C) [3]) | SMILES
> 1000 nM | < 100 nM | < 100 nM | C=CC(=O)N1CCN(c2nc(OC[C@@H]3CC[C@H](CN4CCN(Cc5ccc(-n6c(C(=O)NCC)nnc6-c6cc(C(C)C)c(O)cc6O)cc5)CC4)N3C)nc3c2CCN(c2cccc4cccc(Cl)c24)C3)C[C@@H]1CC#N [Compound 263, 4-{4-[(4-{[(2R,5S)-5-({[7-(8-chloronaphthalen-1-yl)-4-[(3S)-3-(cyanomethyl)-4-(prop-2-enoyl)piperazin-1-yl]-5H,6H,8H-pyrido[3,4-d]pyrimidin-2-yl]oxy}methyl)-1-methylpyrrolidin-2-yl]methyl}piperazin-1-yl)methyl]phenyl}-5-(2,4-dihydroxy-5-isopropylphenyl)-N-ethyl-1,2,4-triazole-3-carboxamide]
100 to 1000 nM | 100 to 1000 nM | < 100 nM | C=CC(=O)N1CCN(c2nc(OC[C@@H]3C[C@H](N4CCN(Cc5ccc(-n6c(C(=O)NCC)nnc6-c6cc(C(C)C)c(O)cc6O)cc5)CC4)CN3C)nc3c2CCN(c2cccc4ccc(F)c(Cl)c24)C3)C[C@@H]1CC#N [Compound 278, 4-[4-({4-[(3S,5S)-5-({[7-(8-chloro-7-fluoronaphthalen-1-yl)-4-[(3S)-3-(cyanomethyl)-4-(prop-2-enoyl)piperazin-1-yl]-5H,6H,8H-pyrido[3,4-d]pyrimidin-2-yl]oxy}methyl)-1-methylpyrrolidin-3-yl]piperazin-1-yl}methyl)phenyl]-5-(2,4-dihydroxy-5-isopropylphenyl)-N-ethyl-1,2,4-triazole-3-carboxamide]
> 1000 nM | 100 to 1000 nM | < 100 nM | C=CC(=O)N1CCN(c2nc(OC[C@@H]3CC[C@H](CN4CCN(C(=O)C5CCN(Cc6ccc(-n7c(O)nnc7-c7cc(CC)c(O)cc7O)cc6)CC5)CC4)N3C)nc3c2CCN(c2cccc4cccc(Cl)c24)C3)C[C@@H]1CC#N [Compound 245, 2-[(2S)-4-[7-(8-chloronaphthalen-1-yl)-2-{[(2S,5R)-5-({4-[1-({4-[3-(5-ethyl-2,4-di hydroxyphenyl)-5-hydroxy-1,2,4-triazol-4-yl]phenyl}methyl)piperidine-4-carbonyl]piperazin-1-yl}methyl)-1-methylpyrrolidin-2-yl]methoxy}-5H,6H,8H-pyrido [3,4-d]pyrimidin-4-yl]-1-(prop-2-enoyl)piperazin-2-yl]acetonitrile]
100 to 1000 nM | < 100 nM | < 100 nM | C=CC(=O)N1CCN(c2nc(OC[C@@H]3CC[C@H](CN4CCN(C(=O)C5CCN(Cc6ccc(-n7c(C(=O)NCC)nnc7-c7cc(C(C)C)c(O)cc7O)cc6)CC5)CC4)N3C)nc3c2CCN(c2cccc4cccc(Cl)c24)C3)C[C@@H]1CC#N [Compound 240, 4-(4-{[4-(4-{[(2R,5S)-5-({[7-(8-chloronaphthalen-1-yl)-4-[(3S)-3-(cyanomethyl)-4-(prop-2-enoyl)piperazin-1-yl]-5H,6H,8H-pyrido[3,4-d]pyrimidin-2-yl]oxy}methyl)-1-methylpyrrolidin-2-yl]methyl}piperazine-1-carbonyl)piperidin-1-yl]methyl}phenyl)-5-(2,4-dihydroxy-5-isopropylphenyl)-N-ethyl-1,2,4-triazole-3-carboxamide]
100 to 1000 nM | 100 to 1000 nM | < 100 nM | C=CC(=O)N1CCN(c2nc(OCC3(CN4CCN(Cc5ccc(-n6c(O)nnc6-c6cc(C(C)C)c(O)cc6O)cc5)CC4)CC3)nc3c2CCN(c2cccc4cccc(Cl)c24)C3)C[C@@H]1CC#N [Compound 284, 2-[(2S)-4-[7-(8-chloronaphthalen-1-yl)-2-[(1-{[4-({4-[3-(2,4-dihydroxy-5-isopropylphenyl)-5-hydroxy-1,2,4-triazol-4-yl]phenyl}methyl)piperazin-1-yl]methyl}cyclopropyl)methoxy]-5H,6H,8H-pyrido[3,4-d]pyrimidin-4-yl]-1-(prop-2-enoyl)piperazin-2-yl]acetonitrile]
